Measurements as given in US11980613B2, “Methods for reversing HIV latency using BAF complex modulating compounds” (priority 2018, dated 2024).

Legend:
Format in all cases: cell-based
[1] = test system: latent HIV-1 in ex vivo infected human CD4+ T cells; assay: Ex vivo HIV latency model (Lassen), luciferase readout
Procedure: [drawing 27] i. BRD-K25923209: To Macrocycle 2141-039b (0.804 g, 1.550 mmol) dissolved in MeOH (Volume: 15.50 ml) was added tin(II) chloride dihydrate (3.50 g, 15.50 mmol). […] Upon completion, the reaction mixture was concentrated and the resulting residue was dissolved in EtOAc and washed with 2 M aq. KOH (2×). The combined aqueous layers were washed with EtOAc (4×). The resulting organic layers were washed with brine, saturated aqueous NaHCO3, water, and brine, dried over MgSO4, filtered, and concentrated. […] BRD-K80443127: A screwtop vial was charged with aniline (BRD-K25923209) (43.3 mg, 0.089 mmol) and CH2Cl2 (Volume: 886 μl, Density: 1.325 g/ml). Isopropyl chloroformate (115 μl, 0.115 mmol) and DIEA (46.4 μl, 0.266 mmol) were added dropwise and reaction stirred under ambient conditions for 1 h. […] BRD-K04244835: A 2.5 mL microwave vial was charged with aniline (BRD-K25923209) (40 mg, 0.082 mmol) and EtOH (Volume: 819 μl, Density: 0.81 g/ml). Squaramide (CRE-III-001) (20.75 mg, 0.098 mmol), DIEA (42.8 μl, 0.246 mmol), and DMAP (2.000 mg, 0.016 mmol) were added in sequence and the vial was sealed. […] 9. […] 10. […] 11.

HIV-1 5′-LTR (Nuc-1) = assay: FAIRE assay in J-Lat 11.1; conditions: overnight compound treatment
Procedure: (§1) 24. Activation markers, apoptosis and viability of primary CD4+ T cells: Activation markers, namely CD25 and CD69 were analyzed as described previously^55. Briefly, CD4+ T cells were treated with DMSO, compound, or PMA/Ionomycin for 24 and 72 hours. Cells were collected, washed with PBS and stained for 30 min at 4° C. with α-CD25-APC (17-0259-42, eBioscience) and α-CD69-FITC (11-0699-42, eBioscience). Following two washes with PBS, cells were fixed with 1% HCHO at 4° C. and analyzed by flow cytometry with Becton Dickinson Fortessa instrument. To determine percent of apoptotic cells after treatment cells were stimulated for 24 and 72 hours and stained with anti-AnnexinV-PE (BD Biosciences, cat. 556454) in the presence of 2.5 mM CaCl2 for 20 min at 4° C. Cells were analyzed by Becton Dickinson Fortessa flow cytometer. Data represents the average of six experiments performed on cells from different healthy donors. Viability of ex-vivo infected primary CD4+ cells was determined by flow cytometry on the basis of forward versus side scatter analysis. 25. FAIRE: FAIRE experiment was performed as described, with minor modifications^55. Eighteen hours prior to analysis, J-Lat 11.1 cells were treated with BAFi's where indicated. Cells were fixed for 10 min by adding formaldehyde to a final concentration of 1% at room temperature. Twenty million cells were used per FAIRE experiment. […]

[2] = test system: human primary CD4+ T cells; assay: T cell activation markers CD25 and CD69; conditions: 24 and 72 hours; two healthy donors
Procedure: as §1

CO[C@H]1CN(C)C(=O)c2cc(NC(=O)OC(C)C)ccc2OC[C@H](C)N(Cc2ccc(-c3ccccn3)cc2)C[C@@H]1C [BRD-K80443127]
latency reversal (transcription of latent HIV-1) ([1]; 24 h treatment): efficiently triggered HIV transcription | latency reversal in combination with other latency reversal agents ([1]; compared to single agent treatments): potentiated the effect of other latency reversal agents | chromatin accessibility at the Nuc-1 position of the 5′ LTR (HIV-1 5′-LTR (Nuc-1)): increased chromatin accessibility | CD25 and CD69 expression [2]: no effect
